These are literature values, as cited in patent publication US20250350689A1, “INTRAVENOUS DOFETILIDE AND USES THEREOF” (Hyloris Developments SA, priority 2023, published 2025).

The test system of one data set is QTc interval. Conditions: slope of QTc versus dofetilide plasma concentration, Sedgwick et al.
Test in data set [1]: not given
This is another data set of the same source.

For data set [2] the following is noted: clinical studies, life threatening arrhythmias.

The structures appear in SMILES notation. Several values for one entry are separate records, joined by “and”; a condition that tells them apart may be missing. Equal values may be shown once. Read-outs that look alike come from different tables or passages of the source.

Turning to `CN(CCOc1ccc(NS(C)(=O)=O)cc1)CCc1ccc(NS(C)(=O)=O)cc1` [dofetilide], the “QTc change per plasma concentration” value in the data set with QTc interval was 15 to 25 ms/ng/mL. Besides, the “plasma concentration Cmax” value (500 μg oral dose, single dose) is reported as 1.9 ng/mL. For the same compound, the “time to reach a steady state concentration” value (oral dofetilide) is “at least 3 days”. Besides, the plasma concentration in data set [1] (infusion of 3.0 μg/mL) is given as 5.35 ng/mL. Also, in data set [1] (relationship between IV dose and serum concentration), the IV dofetilide kinetics result is “linear”. In data set [1] (single dose, 10 min. IV infusion of 1.5 μg/kg), the peak plasma concentration is 1.74 ng/mL and 1.7 ng/mL. In addition, the “safety in patients with poor heart function / heart failure” value in data set [2] was “not to increase life threatening arrhythmias”; in data set [2] (listed as Dofetilide) it was “safe”.
